According to patent US6251925A, “Therapeutic biaryl derivatives” (Glaxo Wellcome Inc., priority 1998, dated 2001):

Assays:
Assay type in all cases: cell-based
[1] = biological target: human beta-3-adrenoceptor (Homo sapiens, UniProt P13945); assay: extracellular cAMP accumulation (agonist activity) in CHO-6CRE-luciferase cells expressing hβ3; settings: CHO cells expressing hβ3, 60 min, 37° C.
Procedure: (§1) A particularly useful method for determining agonist activity at human atypical beta-adrenoceptors involves the use of Chinese hamster ovarian (CHO) cells transfected with the human beta-3-adrenoceptor according to Method 1.
(§2) General cell culture guidelines are observed (Fershney, R. A. (1987) Culture of animal cells: A manual of basic technique. VViley-Liss, Inc., N.Y.). A standard cell culture incubator is used (37° C., 5% CO2 in air, 95% relative humidity). H β3 CHO cells are grown in DMEM/F12 (with pyroxidine.HCl, 15 mM HEPES, L-glutamine), supplanted with 10% heat-inactivated FBS, 500 μg/ml G418, 2 mM L-glutamine, 100 units penicillin G and 100 μg streptomycin sulfate. One confluent flask of cells is trypsinised and resuspended in the above medium at a concentration of 30-40,000 cells/100 μl and plated into 96-well flat bottom plates. The cells are then used for assay within 18-24 hours.
(§3) The medium is aspirated from each well, and replaced with 180 μl DMEM/F12 with […] IBMX. Antagonists, if required, are added at this stage. The plate is then placed back in the incubator for 30 min. Drugs are then added to the wells (20 μl, 100 x required final concentration)for 60 min. Responses were determined by measuring cAMP levels of a 20 ul sample of extracellular media using a scintillation proximity based radio-immunoassay (NEN Flashplates). CHO-6CRE-iuciferase cell lines which stably express hβ3 receptors are seeded at 30,000 cells/well for 24 hr in DMEM/F12 containing 10% FBS. Media is removed from the cells and replaced with DMEM/F12 buffer (180 μl) containing […] IBMX and 1 mM ascorbic acid for 30 min prior to addition of compound. Vehicle or agonist (20 μl) is added and incubated at 37° C. for 60 minutes. At the end of the incubation period, samples of extracellular media are removed for direct assay in cAMP Flashplates (NEN).
(§4) As used herein, a compound is considered to be an agonist for hβ3if the compound stimulates the accumulation of extracellular cAMP with CHO-6CRE-luciferase cells expressing hβ3. […] The relative potency of a hβ3 agonist may be compared to its potency for stimulating the accumulation of extracellular cAMP with CHO-6CRE-luciferase cells expressing hβ2 and hβ1.

[2] = biological target: human beta-2-adrenoceptor (Homo sapiens, UniProt P07550); assay: extracellular cAMP accumulation in CHO-6CRE-luciferase cells expressing hβ2 (selectivity of hβ3 agonists); settings: relative potency hβ3 vs hβ2, cAMP accumulation
Chain of human beta-2-adrenoceptor (P07550 whole entry): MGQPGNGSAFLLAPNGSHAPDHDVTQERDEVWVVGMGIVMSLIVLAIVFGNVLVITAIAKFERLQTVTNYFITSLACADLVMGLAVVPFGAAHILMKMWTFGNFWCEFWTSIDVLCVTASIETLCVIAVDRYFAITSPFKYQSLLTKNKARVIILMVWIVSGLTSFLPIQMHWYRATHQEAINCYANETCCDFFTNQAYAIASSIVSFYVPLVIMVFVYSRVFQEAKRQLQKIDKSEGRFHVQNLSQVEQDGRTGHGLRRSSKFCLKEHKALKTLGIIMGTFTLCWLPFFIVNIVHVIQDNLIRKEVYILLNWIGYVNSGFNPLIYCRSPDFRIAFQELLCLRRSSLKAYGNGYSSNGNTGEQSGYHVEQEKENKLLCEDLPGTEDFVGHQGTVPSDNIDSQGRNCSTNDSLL
Procedure: as §1, §2, §3, §4

[3] = biological target: human beta-1-adrenoceptor (Homo sapiens, UniProt P08588); assay: extracellular cAMP accumulation in CHO-6CRE-luciferase cells expressing hβ1 (selectivity of hβ3 agonists); settings: relative potency hβ3 vs hβ1, cAMP accumulation
Chain of human beta-1-adrenoceptor (P08588 whole entry): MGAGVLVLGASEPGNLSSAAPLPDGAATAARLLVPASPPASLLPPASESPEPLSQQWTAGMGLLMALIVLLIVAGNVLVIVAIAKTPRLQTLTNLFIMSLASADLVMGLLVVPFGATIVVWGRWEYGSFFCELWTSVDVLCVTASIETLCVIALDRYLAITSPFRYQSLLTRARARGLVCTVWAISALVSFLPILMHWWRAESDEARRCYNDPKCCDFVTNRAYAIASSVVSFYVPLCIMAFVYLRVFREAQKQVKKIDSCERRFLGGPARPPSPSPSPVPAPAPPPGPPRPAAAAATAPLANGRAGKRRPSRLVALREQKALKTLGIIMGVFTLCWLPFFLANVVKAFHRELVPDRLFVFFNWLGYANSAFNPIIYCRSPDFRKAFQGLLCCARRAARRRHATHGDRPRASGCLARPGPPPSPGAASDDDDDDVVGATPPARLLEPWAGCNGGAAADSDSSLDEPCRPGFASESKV
Procedure: as §1, §2, §3, §4

Chain of human beta-3-adrenoceptor (P13945 whole entry): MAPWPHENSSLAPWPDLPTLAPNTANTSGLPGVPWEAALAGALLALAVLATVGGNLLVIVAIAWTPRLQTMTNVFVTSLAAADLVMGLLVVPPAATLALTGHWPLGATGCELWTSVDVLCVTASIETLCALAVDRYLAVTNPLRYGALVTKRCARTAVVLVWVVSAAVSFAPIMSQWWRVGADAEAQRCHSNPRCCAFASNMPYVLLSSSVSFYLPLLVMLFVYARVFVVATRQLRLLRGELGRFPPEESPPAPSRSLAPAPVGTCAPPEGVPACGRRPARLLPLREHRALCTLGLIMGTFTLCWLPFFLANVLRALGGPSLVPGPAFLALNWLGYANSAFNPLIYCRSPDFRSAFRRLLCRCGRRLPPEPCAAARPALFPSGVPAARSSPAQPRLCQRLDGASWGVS

| SMILES | EC50 [1] | times more potent at hβ3 than at hβ2 [2] | times more potent at hβ3 than at hβ1 [3] |
| --- | --- | --- | --- |
| O=C(O)c1cccc(-c2cccc(NCCNC[C@H](O)c3cc(Cl)cc(Cl)c3)c2)c1 [Example 9, (R)-3'-[[2-[[2-(3,5-Dichlorophenyl)-2-hydroxyethyl]amino]ethyl]amino]-[1,1'-biphenyl]-3-carboxylic acid] | ≤ 100 nM | at least 100 times | at least 100 times |
| O=C(O)c1cccc(-c2cccc(NCCNC[C@H](O)c3cccc(Cl)c3)c2)c1 [Example 10, (R)-3'-[[2-[[2-(3-Chlorophenyl)-2-hydroxyethyl]amino]ethyl]amino]-[1,1'-biphenyl]-3-carboxylic acid] | ≤ 1 nM | at least 100 times | at least 100 times |
| COC(=O)c1cc(C(=O)O)ccc1-c1cccc(NCCNC[C@H](O)c2cccc(Cl)c2)c1 [Example 11, (R)-3'-[[2-[[2-(3-Chlorophenyl)-2-hydroxyethyl]amino]ethyl]amino]-[1,1'-biphenyl]-2,4-dicarboxylic acid 2-methyl ester] | ≤ 100 nM | at least 100 times | at least 100 times |
| O=C(O)c1ccc(-c2cccc(NCCNC[C@H](O)c3cccc(Cl)c3)c2)c(C(=O)O)c1 [Example 12, (R)-3'-[[2-[[2-(3-Chlorophenyl)-2-hydroxyethyl]amino]ethyl]amino]-[1,1'-biphenyl]-2,4-dicarboxylic acid] | ≤ 100 nM | at least 100 times | at least 100 times |
| Cc1ccc(C(=O)O)cc1-c1cccc(NCCNC[C@H](O)c2cccc(Cl)c2)c1 [Example 13, (R)-3'-[[2-[[2-(3-Chlorophenyl)-2-hydroxyethyl]amino]ethyl]amino]-[1,1'-biphenyl]-2-methyl-5-carboxylic acid] | – | at least 100 times | at least 100 times |
| O=C(O)c1ccc(-c2cccc(NCCNC[C@H](O)c3cccc(Cl)c3)c2)cc1Cl [Example 14, (R)-3'-[[2-[[2-(3-Chlorophenyl)-2-hydroxyethyl]amino]ethyl]amino]-[1,1'-biphenyl]-3-chloro-4-carboxylic acid] | ≤ 100 nM | at least 100 times | at least 100 times |
| O=C(O)c1cccc(-c2cccc(NCCNC[C@@H](O)COc3ccccc3)c2)c1 [Example 16] | ≤ 1 nM | at least 100 times | at least 100 times |
| O=C(O)c1cccc(-c2cccc(OCCNC[C@H](O)c3cccc(Cl)c3)c2)c1 [Example 17] | ≤ 100 nM | at least 100 times | at least 100 times |
| C[C@H](CNc1cccc(-c2ccc(C(=O)O)cc2C(=O)O)c1)NC[C@H](O)c1cccc(Cl)c1 [Example 20, 3'-[[2R-[[2-(3-Chlorophenyl)-2R-hydroxyethyl]amino]propyl]amino]-[1,1'-biphenyl]-2,4-dicarbonylic acid] | ≤ 1 nM | at least 100 times | at least 100 times |
| C[C@H](CNc1cccc(-c2cncc(C(=O)O)c2)c1)NC[C@H](O)c1cccc(Cl)c1 [Example 21, 5-[3-[[2R-[[2-(3-Chlorophenyl)-2R-hydroxyethyl]amino]propyl]amino]phenyl]-3-pyridinecarboxylic acid] | ≤ 100 nM | at least 100 times | at least 100 times |
| C[C@H](CNc1cccc(-c2ncccc2C(=O)O)c1)NC[C@H](O)c1cccc(Cl)c1 [Example 22, 2-[3-[[2R-[[2-(3-Chlorophenyl)-2R-hydroxyethyl]amino]propyl]amino]phenyl]-3-pyridinecarboxylic acid] | ≤ 100 nM | at least 100 times | at least 100 times |
| O=C(O)c1cc(-c2cccc(NCCNC[C@H](O)c3cccc(Cl)c3)c2)cc2c1OCC2 [Example 23] | ≤ 100 nM | at least 100 times | at least 100 times |
| O=C(O)c1cncc(-c2cccc(NCCNC[C@H](O)c3cccc(Cl)c3)c2)c1 [Example 24, (R)-5-[3-[[2-[[2-(3-chlorophenyl)-2-hydroxyethyl]amino]ethyl]amino]phenyl]-3-pyridinecarboxylic acid] | ≤ 1 nM | at least 100 times | at least 100 times |
